Data taken from ChEMBL document CHEMBL5030526, “Synthesis and Preclinical Validation of Novel Indole Derivatives as a GPR17 Agonist for Glioblastoma Treatment” (J Med Chem, 2021).
The source made the active and inactive calls. The rule behind the calls is not given here.

What was measured:
[1] = biological target: T1, Uracil nucleotide/cysteinyl leukotriene receptor (Homo sapiens, UniProt Q13304); assay: Agonist activity at human GPR17 in human SNB-19 cells assessed as decrease in calcium ion levels incubated for 2 hrs by Calcium Fura 2 Dynamic assay
T1 sequence (Q13304 whole entry): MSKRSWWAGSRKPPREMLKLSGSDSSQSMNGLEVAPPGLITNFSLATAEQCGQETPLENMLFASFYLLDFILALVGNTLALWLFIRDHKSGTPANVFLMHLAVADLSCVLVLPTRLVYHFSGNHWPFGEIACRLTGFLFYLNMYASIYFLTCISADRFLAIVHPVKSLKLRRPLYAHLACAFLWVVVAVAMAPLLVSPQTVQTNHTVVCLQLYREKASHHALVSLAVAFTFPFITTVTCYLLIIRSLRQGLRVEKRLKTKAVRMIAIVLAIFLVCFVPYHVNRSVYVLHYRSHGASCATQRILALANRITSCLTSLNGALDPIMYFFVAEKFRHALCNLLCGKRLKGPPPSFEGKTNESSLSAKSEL

[2] = biological target: T1, Uracil nucleotide/cysteinyl leukotriene receptor; assay: Inverse agonist at human GPR17 in human LN-229 cells assessed as intracellular cAMP levels incubated for 2 hrs by cAMP Glo Dynamic assay
[3] = biological target: T1, Uracil nucleotide/cysteinyl leukotriene receptor; assay: Inverse agonist at human GPR17 in human SNB-19 cells assessed as intracellular cAMP levels incubated for 2 hrs by cAMP Glo Dynamic assay
[4] = biological target: T1, Uracil nucleotide/cysteinyl leukotriene receptor; assay: Agonist activity at human GPR17 in human LN-229 cells assessed as decrease in calcium ion levels incubated for 2 hrs by Calcium Fura 2 Dynamic assay
SNB-19 [5] = assay: Cytotoxicity effect against human SNB-19 cells assessed as cell growth inhibition incubated for 48 hrs by trypan blue exclusion assay; type: functional, cell-based; conditions: SNB-19, 48 h
LN-229 [6] = assay: Cytotoxicity effect against human LN-229 cells assessed as cell growth inhibition incubated for 48 hrs by trypan blue exclusion assay; type: functional, cell-based; conditions: LN-229, 48 h
LN-229 [7] = assay: Cytotoxicity against human LN-229 cells assessed as increase in cell death at 100 uM incubated for 48 hrs by trypan blue exclusion assay; type: functional, cell-based
[8] = biological target: T1, Uracil nucleotide/cysteinyl leukotriene receptor; assay: Agonist activity at human GPR17 in human LN-229 cells assessed as decrease in intracellular cAMP levels incubated for 2 hrs by cAMP Glo Dynamic assay
[9] = Cytotoxicity against mouse MEF cells assessed as cell growth inhibition at 100 uM incubated for 48 hrs by trypan blue exclusion assay; type: cell-based
SNB-19 [10] = assay: Cytotoxicity against human SNB-19 cells assessed as cell growth inhibition at 100 uM incubated for 48 hrs by trypan blue exclusion assay; type: functional; conditions: read-out: GI
LN-229 [11] = assay: Cytotoxicity against human LN229 cells assessed as cell growth inhibition at 100 uM incubated for 48 hrs by trypan blue exclusion assay; type: functional; conditions: read-out: GI

With `O=C(O)CCC1=C(C(=O)O)Cc2cc(Cl)cc(Cl)c21` the EC50 [1] was 26.3 µM, the EC50 [2] was 16.6 µM and the EC50 [3] was 17.7 µM. It also gave an EC50 [4] of 26.9 µM.

For `Cn1nnc2c(C(N)=O)ncn2c1=O` [TEMOZOLOMIDE], the IC50 (SNB-19 [5]) was 69.9 µM and the IC50 (LN-229 [6]) was 67.8 µM.

In the case of `O=C(Nc1ccccc1)Oc1cc(OC(=O)Nc2ccccc2)c2c(c1)N(C(c1ccc(F)cc1)c1cccc(Cl)c1O)CC2` (stereo not given), the EC50 [1] is reported as 7.67 µM, the Activity (LN-229 [7]) is reported as “Active” and the EC50 [8] is reported as 59.6 µM. It also gave an inhibition at 48 h, 100 µM [9] of less than 5%, an inhibition of growth at 100 µM (SNB-19 [10]) of 37% and an inhibition of growth at 100 µM (LN-229 [11]) of 50%. The IC50 (SNB-19 [5]) was 85.5 µM, the EC50 [4] was 41.9 µM and the IC50 (LN-229 [6]) was 85.3 µM.
